Laboratory results as given in US12180187B2, “1-phenyl-5-azinylpyrazolyl-3-oxyalkyl acids and their use for controlling unwanted plant growth” (BAYER AKTIENGESELLSCHAFT, priority 2019, dated 2024).

Columns and labels:
VERPE = assay: Pre-emergence action against VERPE, 1280 g/ha; assay type: in vivo, Veronica persica; conditions: scored visually after about 3 weeks vs untreated controls (100% = plants have died); for pest or weed control at 1280 g/ha: Veronica persica, 504 h
How it was run: (§1)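 Pre-emergence pot test: seeds in sandy loam, soil-covered, sprayed on soil surface (WP/EC, 0.5% additive, 600 L/ha water); greenhouse ~3 wk; visual % effect vs untreated, 0–100%.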

ALOMY = assay: Pre-emergence action against ALOMY, 1280 g/ha; assay type: in vivo, Alopecurus myosuroides; conditions: visual scoring after about 3 weeks vs untreated controls, 100% = plants have died, 0% = like control plants
How it was run: as §1

PHBPU [1] = assay: Post-emergence action at 320 g/ha against PHBPU; assay type: in vivo; conditions: visual rating about 3 weeks after treatment vs untreated controls
How it was run: (§2)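 Activity is a visual rating against untreated controls, with 0% like control and 100% dead plants, made about 3 weeks after treatment. Plants grown in sandy loam in the greenhouse received a post-emergence spray at the one-leaf stage of 320 g/ha, formulated as WP or EC with 0.5% additive in 600 l/ha water.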

AMARE [2] = assay: Post-emergence action against AMARE, 1.28 kg/ha; assay type: in vivo, Amaranthus retroflexus; conditions: dosage 1280 g/ha, visual rating about 3 weeks after treatment vs untreated controls (100% = plants died)
How it was run: (§3)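 Spray at one-leaf stage with WP/EC + 0.5% additive, 600 L water/ha. Greenhouse, optimum conditions, ~3 wk. Visual % control vs untreated; 0 = no effect, 100 = dead.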

VIOTR = assay: Pre-emergence action at 320 g/ha against VIOTR; assay type: in vivo, Viola tricolor; conditions: dosage 320 g/ha; for pest or weed control at 320 g/ha: Viola tricolor, 504 h
How it was run: (§4)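 Weed and crop seeds sown in pots and covered with soil; WP or EC formulations sprayed pre-emergence onto the soil surface at 320 g/ha with 0.5% additive in 600 l/ha water. Kept in greenhouse; after about 3 weeks activity scored visually as % versus untreated controls (100% = plants dead, 0% = as control).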

ECHCG = assay: Post-emergence action at 320 g/ha against ECHCG; assay type: in vivo, Echinochloa crus-galli; conditions: dosage 320 g/ha, visual rating about 3 weeks after treatment vs untreated controls (100% = plants died)
How it was run: as §2

ECHGC = assay: Pre-emergence action at 320 g/ha against ECHGC; assay type: in vivo, Echinochloa crus-galli; conditions: visual scoring after about 3 weeks vs untreated controls
How it was run: as §4

AVEFA = assay: Post-emergence action at 320 g/ha against AVEFA; assay type: in vivo; conditions: visual rating about 3 weeks after treatment vs untreated controls; for pest or weed control at 320 g/ha: Avena fatua, 504 h
How it was run: as §2

DIGSA = assay: Pre-emergence action against DIGSA, 1280 g/ha; assay type: in vivo, Digitaria sanguinalis; conditions: visual scoring after about 3 weeks vs untreated controls, 100% = plants have died, 0% = like control plants
How it was run: as §1

AMARE [3] = assay: Post-emergence action at 320 g/ha against AMARE; assay type: in vivo, Amaranthus retroflexus; conditions: visual rating about 3 weeks after treatment vs untreated controls
How it was run: as §2

POLCO = assay: Post-emergence action at 320 g/ha against POLCO; assay type: in vivo, Fallopia convolvulus (Polygonum convolvulus); conditions: visual rating about 3 weeks after treatment vs untreated controls; for pest or weed control at 320 g/ha: Fallopia convolvulus, 504 h
How it was run: as §2

STEME = assay: Post-emergence action against STEME, 1.28 kg/ha; assay type: in vivo, Stellaria media; conditions: dosage 1280 g/ha, visual rating about 3 weeks after treatment vs untreated controls (100% = plants died)
How it was run: as §3

PHBPU [4] = assay: Pre-emergence action at 320 g/ha against PHBPU; assay type: in vivo; conditions: visual scoring after about 3 weeks vs untreated controls
How it was run: as §4

KCHSC [5] = assay: Pre-emergence action against KCHSC, 1280 g/ha; assay type: in vivo, Bassia scoparia; conditions: scored visually after about 3 weeks vs untreated controls (100% = plants have died)
How it was run: as §1

KCHSC [6] = assay: Post-emergence action against KCHSC, 1.28 kg/ha; assay type: in vivo, Bassia scoparia; conditions: dosage 1280 g/ha, visual rating about 3 weeks after treatment vs untreated controls (100% = plants died)
How it was run: as §3

ABUTH = assay: Post-emergence action against ABUTH, 1.28 kg/ha; assay type: in vivo, Abutilon theophrasti; conditions: dosage 1280 g/ha, visual rating about 3 weeks after treatment vs untreated controls (100% = plants died)
How it was run: as §3

SMILES | Pre-emergence action against ALOMY (ALOMY) [%] | Post-emergence action against PHBPU in % (PHBPU [1]) [%] | Post-emergence action against AMARE (AMARE [2]) [%] | Post-emergence action at 320 g/ha against ECHCG in % (ECHCG) [%] | Pre-emergence action against ECHGC in % (ECHGC) [%] | Pre-emergence action against DIGSA (DIGSA) [%] | Pre-emergence action against VERPE (VERPE) [%] | Pre-emergence action against VIOTR in % (VIOTR) [%] | Post-emergence action against AVEFA in % (AVEFA) [%] | Post-emergence action against AMARE in % (AMARE [3]) [%] | Post-emergence action against POLCO in % (POLCO) [%] | Post-emergence action against STEME (STEME) [%] | Pre-emergence action against PHBPU in % (PHBPU [4]) [%] | Pre-emergence action against KCHSC (KCHSC [5]) [%] | Post-emergence action against KCHSC (KCHSC [6]) [%] | Post-emergence action against ABUTH (ABUTH) [%] | also measured
C=CCNC(=O)COc1nn(-c2ccccc2F)c(-c2ccc(F)nc2)c1Br [Example X-001, N-Allyl-2-{[4-bromo-1-(2-fluorophenyl)-5-(6-fluoropyridin-3-yl)-1H-pyrazol-3-yl]oxy}acetamide] | 90 | 80 | 90 | 80 | 100 | 100 |  |  |  |  |  |  |  |  |  |  | pest or weed control at 1280 g/ha (VERPE): 100%; pest or weed control at 320 g/ha (VIOTR): 100%; pest or weed control at 320 g/ha (AVEFA): 90%; pest or weed control at 320 g/ha (AMARE [3]; Amaranthus retroflexus, 504 h): 80%; pest or weed control at 320 g/ha (POLCO): 80%
CS(=O)(=O)NC(=O)COc1nn(-c2ccccc2F)c(-c2ccc(F)nc2)c1Br [Example X-004] | 90 | 90 | 100 | 90 | 90 | 90 | 90 | 100 | 90 | 90 | 80 | 100 |  |  |  |  | 
C[C@@H](Oc1nn(-c2ccccc2F)c(-c2cncnc2)c1Br)C(=O)O [VI-012] | 90 | 80 | 90 |  | 80 | 90 | 100 | 100 | 90 | 80 |  | 90 | 90 | 100 | 90 |  | 
COC(=O)[C@@H](C)Oc1nn(-c2ccccc2)c(-c2cccnc2)c1Br [VII-008] | 100 | 80 | 90 | 90 | 80 | 100 | 100 | 100 | 90 | 90 |  | 100 | 80 | 90 | 90 | 90 | 
COC(=O)C(C)Oc1nn(-c2ccccc2)c(-c2ccc(F)nc2)c1Br (centres unmarked) [VII-014] | 90 |  | 90 | 80 | 80 | 100 | 90 | 100 | 90 | 90 | 80 | 90 |  | 100 |  |  | 
COC(=O)COc1nn(-c2ccccc2)c(-c2ccc(F)nc2)c1Br [VII-018] | 100 | 90 |  |  | 90 | 100 | 100 | 90 | 80 | 90 | 90 | 100 |  | 90 | 90 | 90 | 
COC(=O)C(C)Oc1nn(-c2ccccc2)c(-c2ccc(F)nc2)c1Br (centres unmarked) [VII-026] | 100 |  | 90 |  |  | 100 | 100 | 100 | 80 | 90 | 90 | 100 |  | 100 | 90 | 90 | 
COC(=O)COc1nn(-c2ccccc2F)c(-c2ccc(F)nc2)c1F [VII-040] | 100 | 90 | 90 | 80 | 90 | 100 | 100 | 100 | 90 | 90 | 90 | 100 |  |  | 90 | 90 | 
COC(=O)COc1nn(-c2cc(F)ccc2F)c(-c2ccc(F)nc2)c1Br [VII-089] | 100 | 80 | 90 |  | 80 | 100 | 100 | 100 | 80 | 80 |  | 100 | 80 |  |  | 90 | 
COC(=O)CCOC(=O)COc1nn(-c2ccccc2F)c(-c2ccc(F)nc2)c1Br [VII-111] | 100 | 80 | 90 | 90 | 100 | 100 | 100 | 100 | 90 | 90 | 90 | 100 |  |  |  | 90 | 
CCOC(=O)COc1nn(-c2ccccc2F)c(-c2ccnc(F)c2)c1Br [VIII-003, Ethyl {[4-bromo-1-(2-fluorophenyl)-5-(2-fluoropyridin-4-yl)-1H-pyrazol-3-yl]oxy}acetate] |  | 80 | 90 | 80 | 90 |  |  |  |  |  |  | 100 |  |  |  | 90 | pest or weed control at 1280 g/ha (VERPE): 90%; pest or weed control at 320 g/ha (VIOTR): 100%; pest or weed control at 320 g/ha (AVEFA): 90%; pest or weed control at 320 g/ha (POLCO): 80%
COC(=O)[C@@H](C)Oc1nn(-c2ccccc2F)c(-c2ccnc(F)c2)c1Br [VIII-006] | 100 |  | 100 | 90 |  | 100 | 100 | 100 | 80 | 80 |  | 100 | 90 | 100 | 90 |  | 
